Measurements: US20240317735A1, “HYDROISOQUINOLINE OR HYDRONAPHTHYRIDINE COMPOUNDS FOR THE TREATMENT OF AUTOIMMUNE DISEASE” (Hoffmann-La Roche Inc., priority 2020, published 2024)

target: T1, human TLR7 (Homo sapiens, UniProt Q9NYK1); experiment: HEK293-Blue-hTLR-7 cells assay (SEAP reporter, R848 stimulation); assay type: cell-based; conditions: HEK293-Blue-hTLR7 cells, R848, 20 hrs; read-out: HEK/hTLR7 IC50
T1 construct: host or cells: HEK293 (HEK-Blue hTLR7)
T1 sequence (Q9NYK1 27-1049): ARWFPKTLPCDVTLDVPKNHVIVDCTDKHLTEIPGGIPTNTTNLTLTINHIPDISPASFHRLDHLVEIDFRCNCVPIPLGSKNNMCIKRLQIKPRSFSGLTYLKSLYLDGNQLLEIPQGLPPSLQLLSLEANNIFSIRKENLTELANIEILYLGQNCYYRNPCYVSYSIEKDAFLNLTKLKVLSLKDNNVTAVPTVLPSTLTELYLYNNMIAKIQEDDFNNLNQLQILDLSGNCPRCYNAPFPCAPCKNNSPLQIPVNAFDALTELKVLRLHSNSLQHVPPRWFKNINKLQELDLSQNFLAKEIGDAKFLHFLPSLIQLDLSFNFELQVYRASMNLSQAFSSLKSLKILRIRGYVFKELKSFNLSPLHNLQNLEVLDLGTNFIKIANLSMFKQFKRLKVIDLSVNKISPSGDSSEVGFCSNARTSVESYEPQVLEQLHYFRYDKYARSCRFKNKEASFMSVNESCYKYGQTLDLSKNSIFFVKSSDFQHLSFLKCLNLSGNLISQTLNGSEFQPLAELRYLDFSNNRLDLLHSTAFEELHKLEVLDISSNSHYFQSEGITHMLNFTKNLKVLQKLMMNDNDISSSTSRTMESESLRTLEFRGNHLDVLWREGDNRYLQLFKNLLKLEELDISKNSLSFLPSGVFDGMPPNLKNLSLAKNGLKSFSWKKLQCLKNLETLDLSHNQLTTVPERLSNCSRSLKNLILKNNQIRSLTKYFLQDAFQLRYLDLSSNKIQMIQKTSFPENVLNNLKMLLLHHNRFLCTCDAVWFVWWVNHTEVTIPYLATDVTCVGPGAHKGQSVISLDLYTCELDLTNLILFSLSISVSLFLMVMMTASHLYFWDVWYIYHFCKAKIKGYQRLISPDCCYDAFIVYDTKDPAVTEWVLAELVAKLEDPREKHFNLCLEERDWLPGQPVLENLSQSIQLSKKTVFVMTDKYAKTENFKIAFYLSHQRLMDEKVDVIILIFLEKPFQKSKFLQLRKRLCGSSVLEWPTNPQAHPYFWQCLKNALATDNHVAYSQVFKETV
Summary of the method: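 Stable HEK293-Blue-hTLR7 cells (NF-κB/AP-1-driven SEAP reporter) were co-incubated with serially diluted compound (1% DMSO final) and R848 for 20 hrs at 37 °C. Supernatant SEAP was developed with QUANTI-Blue substrate for 2 hrs at 37 °C and absorbance read at 620–655 nm; antagonism seen as reduced reporter signal.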

SMILES | IC50
C[C@H]1CN(c2ccnc3c2cnn3C)Cc2ccc(N3CCNCC3)cc21 [Example 1, (4R)-4-methyl-2-(1-methylpyrazolo[3,4-b]pyridin-4-yl)-6-piperazin-1-yl-3,4-dihydro-1H-isoquinoline] | 3 nM
C[C@H]1CN(c2ccnc3c2cnn3C)Cc2ccc(OC[C@H]3CNCCN3C)cc21 [Example 43, (4R)-4-methyl-2-(1-methylpyrazolo[3,4-b]pyridin-4-yl)-6-[[(2R)-1-methylpiperazin-2-yl]methoxy]-3,4-dihydro-1H-isoquinoline] | 8 nM
Cc1cc(N2Cc3ccc(N4CCNCC4)nc3[C@H](C)C2)c2cnn(C)c2n1 [Example 72, (8R)-6-(1,6-dimethylpyrazolo[3,4-b]pyridin-4-yl)-8-methyl-2-piperazin-1-yl-7,8-dihydro-5H-1,6-naphthyridine] | 21 nM
Cc1cc(N2Cc3ccc(N4CCC(N)CC4)nc3[C@@H](C)C2)c2cnn(C)c2n1 [Example 58, 1-[(8S)-6-(1,6-dimethylpyrazolo[3,4-b]pyridin-4-yl)-8-methyl-7,8-dihydro-5H-1,6-naphthyridin-2-yl]piperidin-4-amine] | 2 nM
Cc1cc(N2Cc3ccc(N4CC5(CNCCO5)C4)cc3[C@@H](C)C2)c2cnn(C)c2n1 [Example 48, 2-[(4R)-2-(1,6-dimethylpyrazolo[3,4-b]pyridin-4-yl)-4-methyl-3,4-dihydro-1H-isoquinolin-6-yl]-5-oxa-2,8-diazaspiro[3.5]nonane] | 13 nM

Other lines, results leading:

IC50 | SMILES
6 nM | C[C@H]1CN(c2ccnc3c2cnn3C)Cc2ccc(N3CCN(C(=O)C4CCCN4)CC3)cc21 (stereo partly drawn) [Example 8, pyrrolidin-2-yl-[4-[(4R)-4-methyl-2-(1-methylpyrazolo[3,4-b]pyridin-4-yl)-3,4-dihydro-1H-isoquinolin-6-yl]piperazin-1-yl]methanone]
10 nM | C[C@H]1CN(c2ccnc3c2cnn3C)Cc2ccc(N3C[C@@H](N)[C@H](O)C3)cc21 [Example 46, trans-4-amino-1-[(4R)-4-methyl-2-(1-methylpyrazolo[3,4-b]pyridin-4-yl)-3,4-dihydro-1H-isoquinolin-6-yl]pyrrolidin-3-ol]
18 nM | C[C@H]1CN(c2ccnc3c2cnn3C)Cc2ccc(N3CCN(C(=O)C4CCNCC4)CC3)cc21 [Example 7, 4-piperidyl-[4-[(4R)-4-methyl-2-(1-methylpyrazolo[3,4-b]pyridin-4-yl)-3,4-dihydro-1H-isoquinolin-6-yl]piperazin-1-yl]methanone]
10 nM | C[C@H]1CN(c2ccnc3c2cnn3C)Cc2ccc(N3C[C@H]4CNCCN4C3=O)cc21 [Example 24, (8aR)-2-[(4R)-4-methyl-2-(1-methylpyrazolo[3,4-b]pyridin-4-yl)-3,4-dihydro-1H-isoquinolin-6-yl]-1,5,6,7,8,8a-hexahydroimidazo[1,5-a]pyrazin-3-one]
